Measurements published in EP0603240B1, “SAFENING HERBICIDAL PYRAZOLYLSULFONYLUREAS” (priority 1991, dated 1993).

Legend:
Assay type in all cases: in vivo
[1] = system: velvetleaf (Abutilon theophrasti); test: Example 14, Procedure II: Herbicide No. 1 + metolachlor (No. 12) with Antidote No. 17
corn [2] = test: Example 16, Procedure II: Herbicide No. 1 + EPTC (No. 4, EPTAM) with antidotes
Description: (§1) Containers were filled and compacted with a fumigated silt loam top soil to a depth of about 1.3 cm from the top of the container. A first container was designated as an untreated control, a second container was designated as a herbicide control, and a third container was designated as a herbicide + antidote test container. Each of the containers was seeded with a crop species. A measured amount of herbicide dispersed or dissolved in acetone was applied to a measured quantity of soil. To this same quantity of soil treated with herbicide, there was added a measured amount of antidote dispersed or dissolved in acetone. The quantity of soil treated with the herbicide and antidote was thoroughly mixed to incorporate the herbicide and antidote in the soil uniformly. The seed bed in the third container of soil was covered with the soil treated with the herbicide and antidote and the container was leveled. For each test series, the seed beds of the first and second containers were likewise covered by soil layers. the cover layer of the first container was not treated with herbicide or antidote.
(§2) The containers were then placed on a bench in a greenhouse and sub-irrigated as required for the duration of the test. […] Plant response is measured in terms of percent injury. Antidote efficacy is indicated as the difference in plant injury by the herbicide(s) without the antidote and with the antidote.
(§3) This procedure is the same as Procedure I, but modified in the manner that after incorporation of the chemicals (herbicide and antidote) the containers with the covered seedbed were treated with an initial overhead irrigation equivalent to 0.6 cm rainfall, then subsequently sub-irrigated as required on greenhouse benches.
The test procedure used in these experiments was that of Procedure II described above. The antidotes were applied to a soil cover layer by pipet after spraying the herbicides onto the soil, followed by incorporation and overhead irrigation. […]

[3] = system: velvetleaf (Abutilon theophrasti); test: Example 20, Procedure II: Herbicide No. 1 + EPTC or ERADICANE EXTRA with Antidote Nos. 5 and 15
Description: as §1, §2, §3
(§4) In the series of greenhouse tests described below, for routine screening purposes the herbicide/antidote compositions were tested in crop/weed combinations involving corn as the crop and either or both of the weeds barnyardgrass (Echinochloa crusgalli), a monocotyledonous weed, and velvetleaf (Abutilon theophrasti), a dicotyledonous weed. In the tables below, these weeds are indicated by the symbols "BYG" and "VL", respectively.
This example describes experiments designed to test two generally efficacious antidotal compounds, i.e., Antidote Nos. 5 and 15, against the herbicidal action of the sulfonylurea compound, Herbicide No. 1, and the commercial herbicides EPTC (Herbicide No. 4) and ERADICANE® EXTRA (EPTC + R-29148, Antidote No. 5). Procedure II above was used in conducting these experiments. Formulations of EPTC and ERADICANE EXTRA were applied onto soil cover layers (to be applied over seed beds), followed by sequential pipetting of Herbicide No. 1 and Antidote No. 15. The soil was mixed to homogeneity and spread over the seed beds followed by 0.6 cm of overhead irrigation.

corn [4] = test: Example 1, greenhouse Procedure II: antidotes against Herbicide No. 1; conditions: Herb. No. 1 0.14 kg/ha, no antidote
Description: as §1, §2, §3, §4
This example was designed to investigate the antidotal efficacy of a plurality of antidotes against Herbicide No. 1 in corn in the presence of barnyard grass and velvetleaf. The antidotes used in this example were Antidote Nos. 1-10, 12, 13 and 15.
The test in this example was conducted as described above for Procedure II. The antidotes were applied to the soil cover layer by pipet after spraying on the herbicide followed by incorporation and simulated rain.

[5] = system: barnyardgrass (Echinochloa crusgalli); test: Example 3, Procedure I: antidotes against Herbicide No. 1; conditions: no antidote
Description: as §1, §2, §4
This example details the results of tests with Antidote Nos. 12, 15 and 16 to safen Herbicide No. 1 over application rates ranging from 4.48 kg/ha down to 0.56 kg/ha, in corn in the presence of barnyardgrass. Procedure I described above was used in these tests.

[6] = system: barnyardgrass (Echinochloa crusgalli); test: Example 4, Procedure I: Antidote Nos. 15 and 16 against Herbicide No. 1; conditions: no antidote, average of two replicates
[7] = system: barnyardgrass (Echinochloa crusgalli); test: Example 5, Procedure I: Herbicide No. 1 + alachlor (No. 7) with Antidote Nos. 15 and 16; conditions: no antidote
Description: as §1, §2, §4
(§5) This example describes tests with Antidote Nos. 15 and 16 to safen Herbicide No. 1 according to Procedure I using corn and the weeds barnyardgrass and velvetleaf as the test plants.
(§6) In the tests described in this example, the same procedure described in Example 4 was performed simultaneously therewith and under the same conditions, except that a co-herbicide, alachlor, was included in the same composition with Herbicide No. 1 and Antidote Nos. 15 and 16. Alachlor (Herbicide No. 7 herein) is the active ingredient in the commercial product LASSO® herbicide.

[8] = system: velvetleaf (Abutilon theophrasti); test: as above; conditions: no antidote
Description: as §1, §2, §4, §5, §6

[9] = Herbicide No.1 0.56 kg/ha alone
[10] = Herbicide No.1 4.48 + No.7 0.56 kg/ha
[11] = Herbicide No.1 4.48 + No.7 2.24 kg/ha
[12] = Herbicide No.1 6.72 + No.7 0.56 kg/ha
[13] = Herbicide No.1 6.72 + No.7 (alachlor) 2.24 kg/ha

SMILES: CC1COc2ccccc2N1C(=O)C(Cl)Cl (stereo not shown) [compound 17]
- % Injury VL ([1]; Herbicide No.1 0.14 + No.12 4.48 kg/ha + Antidote No.17 0.15 kg/ha): 90%
- % Injury VL ([1]; Herbicide No.1 0.56 + No.12 4.48 kg/ha + Antidote No.17 0.15 kg/ha): 95%
- % Injury VL ([1]; Herbicide No.1 2.24 + No.12 4.48 kg/ha + Antidote No.17 0.15 kg/ha): 100%

SMILES: COC(=O)c1c(Cl)nn(C)c1S(=O)(=O)NC(=O)Nc1nc(OC)cc(OC)n1 [No.1]
- % Injury Corn (corn [2]; [9]): 10%
- % Injury Corn (corn [2]; Herbicide No.1 1.12 kg/ha alone): 15%
- % Injury VL ([3]; Herbicide No.1 0.56 kg/ha + ERADICANE EXTRA 2.24 kg/ha): 95%
- % Injury VL ([3]; Herbicide No.1 0.56 kg/ha + ERADICANE EXTRA 4.48 kg/ha): 90%
- % Injury VL ([3]; Herbicide No.1 0.56 kg/ha + ERADICANE EXTRA 6.72 kg/ha): 100%
- % Injury VL ([3]; Herbicide No.1 0.56 kg/ha + No. 4 2.24 kg/ha, no antidote): 95%
- % Injury VL ([3]; Herbicide No.1 0.56 kg/ha + No. 4 4.48 kg/ha, no antidote): 90%
- % Injury VL ([3]; Herbicide No.1 0.56 kg/ha + No. 4 6.72 kg/ha, no antidote): 100%
- % Injury VL [3, 9]: 95%
- % Injury VL ([3]; Herbicide No.1 2.24 kg/ha + ERADICANE EXTRA 2.24 kg/ha): 100%
- % Injury VL ([3]; Herbicide No.1 2.24 kg/ha + ERADICANE EXTRA 4.48 kg/ha): 100%
- % Injury VL ([3]; Herbicide No.1 2.24 kg/ha + ERADICANE EXTRA 6.72 kg/ha): 95%
- % Injury VL ([3]; Herbicide No.1 2.24 kg/ha + No. 4 2.24 kg/ha, no antidote): 95%
- % Injury VL ([3]; Herbicide No.1 2.24 kg/ha + No. 4 4.48 kg/ha, no antidote): 95%
- % Injury VL ([3]; Herbicide No.1 2.24 kg/ha + No. 4 6.72 kg/ha, no antidote): 100%
- % Injury VL ([3]; Herbicide No.1 2.24 kg/ha alone): 100%

SMILES: COC(=O)c1c(Cl)nn(C)c1S(=O)(=O)NC(=O)Nc1nc(OC)cc(OC)n1 [Herbicide No. 1]
- % Injury Corn (corn [4]): 5%
- % Injury BYG ([5]; Herb. No. 1 0.56 kg/ha): 50%
- % Injury BYG ([5]; Herb. No. 1 1.12 kg/ha): 70%
- % Injury BYG ([5]; Herb. No. 1 2.24 kg/ha): 70%
- % Injury BYG ([5]; Herb. No. 1 4.48 kg/ha): 75%
- % Injury BYG ([6]; Herb. No. 1 4.48 kg/ha): 80%
- % Injury BYG ([6]; Herb. No. 1 6.72 kg/ha): 90%
- % Injury BYG [7, 10]: 99%
- % Injury BYG [7, 11]: 100%
- % Injury BYG [7, 12]: 99%
- % Injury BYG [7, 13]: 100%
- % Injury VL [8, 10]: 98%
- % Injury VL [8, 11]: 98%
- % Injury VL [8, 12]: 98%
- % Injury VL [8, 13]: 98%

SMILES: CC1(C)OC(c2ccco2)CN1C(=O)C(Cl)Cl (stereo not shown) [Antidote No. 15, Oxazolidine, 3-(dichloroacetyl)-5-(2-furanyl)-2,2-dimethyl]
- % Injury VL ([3]; Herbicide No.1 0.56 kg/ha + No. 4 2.24 kg/ha, Antidote No. 15 0.18 kg/ha): 90%
- % Injury VL ([3]; Herbicide No.1 0.56 kg/ha + No. 4 4.48 kg/ha, Antidote No. 15 0.35 kg/ha): 95%
- % Injury VL ([3]; Herbicide No.1 0.56 kg/ha + No. 4 6.78 kg/ha, Antidote No. 15 0.56 kg/ha): 95%
- % Injury VL ([3]; Herbicide No.1 2.24 kg/ha + No. 4 2.24 kg/ha, Antidote No. 15 0.18 kg/ha): 95%
- % Injury VL ([3]; Herbicide No.1 2.24 kg/ha + No. 4 4.48 kg/ha, Antidote No. 15 0.35 kg/ha): 95%
- % Injury VL ([3]; Herbicide No.1 2.24 kg/ha + No. 4 6.78 kg/ha, Antidote No. 15 0.56 kg/ha): 100%
